In patent US12473289B2, “Heterocyclic compounds as delta-5 desaturase inhibitors and methods of use” (Amgen Inc., priority 2019, dated 2025) one finds IC50 data, which are given here for 28 compounds.

In the assay the target is Delta-5-Desaturase (D5D) (Homo sapiens (Human), UniProt O60427). Nature of the assay: In vitro measurement of Delta-5-Desaturase inhibitory activity using DGLA-CoA and Arachidonyl-CoA mass spectrometric assays. The following applies: membrane preparations of D5D-overexpressing HEK293 6E cells; averaged over at least two independent runs. The class given is biochemical. The protocol:
In vitro Measurement of Delta-5-Desaturase Inhibitory Activity using DGLA-CoA and Arachidonyl-CoA Mass Spectrometric Assays
Membrane preparations of D5D-overexpressing HEK293 6E cells were prepared in which the total protein concentration was 5.6 mg/mL. Stock D5D membrane preparations were diluted in D5D assay buffer (25 mM 2-amino-2-(hydroxymethyl)-1,3-propanediol, pH 7.5 containing 10 mM MgCl2, 1 mM octyl glucoside (SigmaAldrich 0-8001), 1 mM tris(2-carboxyethyl)phosphine hydrochloride (SigmaAldrich 646547)) to a final D5D membrane concentration of 10 μg/mL in an assay plate containing serially diluted test compounds. To 15 μL of this D5D preparation was added 15 μL of a substrate solution (0.25 mM NADH (nicotinamide adenine dinucleotide, Roche Diag. 10107735001), 0.25 mM adenosine triphosphate (SigmaAldrich A-3377), 0.05 mM coenzyme A hydrate (SigmaAldrich C-4282), and 0.01 mM DGLA (dihomo-g-linolenic acid, Sigma E-4504) in the same D5D assay buffer. After one-hour incubation at ambient temperature acetonitrile (30 μL) was added to quench the reaction and plates were centrifuged for 10 min @3,000 rpm. Mass spectrometric analysis involved a Rapidfire 360 SPE system coupled to an ABSciex API4000 Triple Quadrupole mass spectrometer using a C18 SPE cartridge (G9203-80105) with ionization in negative mode (solvent A=100% water; solvent B=100% acetonitrile, each solvent containing 5 mM ammonium acetate). DGLA-CoA and Arachidonyl-CoA were detected by multiple reaction monitoring (MRM) of the doubly charged parent ions at m/z 526.6 and 525.6, respectively.
Sx is value from unknown sample, So is value from DMSO alone and Sc is value from no enzyme well. For CRC analysis, the % of inhibitions were analyzed with 4 Parameter Logistic Model or Sigmoidal Dose-Response Model using XLfit (IDBS, Guilford, UK). The potency of the test item was expressed as IC50 nM, corresponding to the test item concentration able to inhibit the 50% of the enzyme maximal response. IC50 values were averaged values determined by at least two independent runs.
This assay may be used to test any of the compounds described herein to assess and characterize a compound's ability to inhibit D5D.

Sequence of Delta-5-Desaturase (D5D) (O60427 whole entry, species assumed): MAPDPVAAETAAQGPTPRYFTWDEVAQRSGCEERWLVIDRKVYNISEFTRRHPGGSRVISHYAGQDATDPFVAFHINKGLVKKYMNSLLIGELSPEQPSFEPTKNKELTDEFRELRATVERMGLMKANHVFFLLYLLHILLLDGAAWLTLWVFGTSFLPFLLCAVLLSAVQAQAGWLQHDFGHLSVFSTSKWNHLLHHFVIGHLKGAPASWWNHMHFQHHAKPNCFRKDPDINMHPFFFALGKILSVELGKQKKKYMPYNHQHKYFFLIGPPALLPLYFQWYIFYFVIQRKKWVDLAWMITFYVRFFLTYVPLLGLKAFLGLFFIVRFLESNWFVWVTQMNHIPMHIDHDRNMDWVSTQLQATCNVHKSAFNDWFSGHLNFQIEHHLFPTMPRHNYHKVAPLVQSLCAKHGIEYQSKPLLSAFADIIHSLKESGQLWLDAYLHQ

The IC50 is the point on the concentration scale where inhibition reaches its midpoint. As for `O=c1c(-c2cnn(CC(F)(F)C(F)(F)F)c2)c(C(F)(F)F)nc2cnc(Cl)cn12` [Example 39-35, 7-chloro-3-[1-(2,2,3,3,3-pentafluoropropyl)-1H-pyrazol-4-yl]-2-(trifluoromethyl)-4H-pyrazino[1,2-a]pyrimidin-4-one], the half-maximal inhibitory concentration (IC50) was 13.4 nM.
To `O=c1c(-c2cnn(C3CC3)c2)c(C(F)(F)F)nc2ccccn12` [Example 5-3, 3-(1-cyclopropyl-1H-pyrazol-4-yl)-2-(trifluoromethyl)-4H-pyrido[1,2-a]pyrimidin-4-one] belongs 5190 nM; to `COc1ccn2c(=O)c(-c3cn(CCC(F)(F)F)cn3)c(C(F)(F)F)nc2c1` [Example 25, 8-Methoxy-2-(trifluoromethyl)-3-(1-(3,3,3-trifluoropropyl)-1H-imidazol-4-yl)-4H-pyrido[1,2-a]pyrimidin-4-one], 66.2 nM.
For the compound `COc1ccn2c(=O)c(-c3ccc(OCC(F)(F)F)cc3F)c(C(F)(F)F)nc2n1` [Example 1-53, 3-(2-fluoro-4-(2,2,2-trifluoroethoxy)phenyl)-8-methoxy-2-(trifluoromethyl)-4H-pyrimido[1,2-a]pyrimidin-4-one], the IC50 came to 8.5 nM.
The result for `O=c1c(-c2cnn(CC(F)(F)C(F)(F)F)c2)c(C(F)(F)F)nc2cc(OCCl)cnn12` [Example 48, 8-(Chloromethoxy)-3-[1-(2,2,3,3,3-pentafluoropropyl)-1H-pyrazol-4-yl]-2-(trifluoromethyl)-4H-pyrimido[1,2-b]pyridazin-4-one] reads 119 nM.
The result for `NC(=O)c1ccn2c(=O)c(-c3ccc(OCC(F)(F)F)cc3)c(C(F)(F)F)nc2c1` [Example 12-2, 4-oxo-3-(4-(2,2,2-trifluoroethoxy)phenyl)-2-(trifluoromethyl)-4H-pyrido[1,2-a]pyrimidine-8-carboxamide] reads 5.2 nM; that for `Cc1cnn2c(=O)c(-c3cnn(CC(F)(F)C(F)(F)F)c3)c(C(F)(F)F)nc2c1` [Example 39-40, 8-methyl-3-[1-(2,2,3,3,3-pentafluoropropyl)-1H-pyrazol-4-yl]-2-(trifluoromethyl)-4H-pyrimido[1,2-b]pyridazin-4-one], 67 nM.
Take `O=c1c(-c2ccc(OCC(F)(F)F)cc2)c(C(F)(F)F)nc2cc(F)ccn12` [Example 2-3, 8-fluoro-3-(4-(2,2,2-trifluoroethoxy)phenyl)-2-(trifluoromethyl)-4H-pyrido[1,2-a]pyrimidin-4-one]: the 50% inhibitory concentration (IC50) is 88.4 nM.
To `COc1ccn2c(=O)c(-c3cnn(C4CC4)c3)c(C(F)(F)F)nc2c1` [Example 49, 3-(1-Cyclopropyl-1H-pyrazol-4-yl)-8-methoxy-2-(trifluoromethyl)-4H-pyrido[1,2-a]pyrimidin-4-one] belongs 104 nM; to `COc1ccn2c(=O)c(-c3cnn(CC#N)c3)c(C(F)(F)F)nc2c1` [Example 1-26, (4-(8-methoxy-4-oxo-2-(trifluoromethyl)-4H-pyrido[1,2-a]pyrimidin-3-yl)-1H-pyrazol-1-yl)acetonitrile], 278 nM.
The result for `Cc1ccn2c(=O)c(-c3noc(CCC(F)(F)F)n3)c(C(F)(F)F)nc2c1` [Example 50, 8-Methyl-2-(trifluoromethyl)-3-[5-(3,3,3-trifluoropropyl)-1,2,4-oxadiazol-3-yl]-4H-pyrido[1,2-a]pyrimidin-4-one] reads 5380 nM; that for `COc1cc2nc(C(F)(F)F)c(-c3cnn(CCC(F)(F)F)c3)c(=O)n2cc1F` [Example 39-58, 7-fluoro-8-methoxy-2-(trifluoromethyl)-3-[1-(3,3,3-trifluoropropyl)-1H-pyrazol-4-yl]-4H-pyrido[1,2-a]pyrimidin-4-one], 20.4 nM; that for `O=c1ccn2c(=O)c(-c3ccc(OCCF)cc3)c(C(F)(F)F)nc2[nH]1` [Example 1-56, 7-(4-(2-fluoroethoxy)phenyl)-8-(trifluoromethyl)-2H-pyrimido[1,2-a]pyrimidine-2,6(1H)-dione], 9280 nM.
The result for `C[C@@H](O)c1ccn2c(=O)c(-c3ccc(OCC(F)(F)F)cc3)c(C(F)(F)F)nc2c1` [Example 30-2, 8-((1R)-1-hydroxyethyl)-3-(4-(2,2,2-trifluoroethoxy)phenyl)-2-(trifluoromethyl)-4H-pyrido[1,2-a]pyrimidin-4-one] reads 111 nM; that for `Cc1cn2c(=O)c(-c3cnn(CC(F)(F)C(F)(F)F)c3)c(C(F)(F)F)nc2c(C)n1` [Example 39-43, 7,9-dimethyl-3-[1-(2,2,3,3,3-pentafluoropropyl)-1H-pyrazol-4-yl]-2-(trifluoromethyl)-4H-pyrazino[1,2-a]pyrimidin-4-one], 179 nM; that for `CSc1ccn2c(=O)c(-c3cnn(CC(F)(F)C(F)(F)F)c3)c(C(F)(F)F)nc2c1` [Example 1-30, 8-(methylsulfanyl)-3-(1-(2,2,3,3,3-pentafluoropropyl)-1H-pyrazol-4-yl)-2-(trifluoromethyl)-4H-pyrido[1,2-a]pyrimidin-4-one], 18.8 nM.
For `COc1ccn2c(=O)c(-c3cc(CC(F)(F)C(F)(F)F)no3)c(C(F)(F)F)nc2c1` [Example 60, 8-Methoxy-3-[3-(2,2,3,3,3-pentafluoropropyl)-1,2-oxazol-5-yl]-2-(trifluoromethyl)-4H-pyrido[1,2-a]pyrimidin-4-one], the IC50 was 74.9 nM.
Consider `O=c1c(-c2ccc(OCC(F)(F)F)cc2)c(C(F)(F)F)nc2cc(-c3ncco3)ccn12` [Example 29, 8-(1,3-Oxazol-2-yl)-3-(4-(2,2,2-trifluoroethoxy)phenyl)-2-(trifluoromethyl)-4H-pyrido[1,2-a]pyrimidin-4-one], for which the IC50 was 97.1 nM.
The result for `N#Cc1ccn2c(=O)c(-c3ccc(OCC(F)(F)F)cc3)c(C(F)(F)F)nc2c1` [Example 2-9, 4-oxo-3-(4-(2,2,2-trifluoroethoxy)phenyl)-2-(trifluoromethyl)-4H-pyrido[1,2-a]pyrimidine-8-carbonitrile] reads 440 nM; that for `Cc1ccc2nc(C(F)(F)F)c(-c3cnn(CC(F)(F)C(F)(F)F)c3)c(=O)n2c1` [Example 39-19, 7-methyl-3-[1-(2,2,3,3,3-pentafluoropropyl)-1H-pyrazol-4-yl]-2-(trifluoromethyl)-4H-pyrido[1,2-a]pyrimidin-4-one], 1.7 nM.
To `CCCc1cc(-c2c(C(F)(F)F)nc3cc(OC)ccn3c2=O)no1` [Example 61, 8-Methoxy-3-(5-propyl-1,2-oxazol-3-yl)-2-(trifluoromethyl)-4H-pyrido[1,2-a]pyrimidin-4-one] belongs 46.9 nM; to `COc1ccn2c(=O)c(-c3cnn(-c4cccc(F)c4)c3)c(C(F)(F)F)nc2c1` [Example 1-18, 3-(1-(3-fluorophenyl)-1H-pyrazol-4-yl)-8-methoxy-2-(trifluoromethyl)-4H-pyrido[1,2-a]pyrmidin-4-one], 25.2 nM.
To `COc1ccn2c(=O)c(-c3cnn(C[C@@H]4CC4(F)F)c3)c(C(F)(F)F)nc2c1` [Example 70, 3-(1-{[(1S)-2,2-Difluorocyclopropyl]methyl}-1H-pyrazol-4-yl)-8-methoxy-2-(trifluoromethyl)-4H-pyrido[1,2-a]pyrimidin-4-one] belongs 10.5 nM.
The compound `COc1ccn2c(=O)c(-c3cnc(OCC(F)(F)F)nc3)c(C(F)(F)F)nc2n1` [Example 39-13, 8-methoxy-3-[2-(2,2,2-trifluoroethoxy)pyrimidin-5-yl]-2-(trifluoromethyl)-4H-[1,3]diazino[1,2-a]pyrimidin-4-one] yielded an IC50 of 248 nM.
To `COc1ccn2c(=O)c(-c3cnn(CCC(F)(F)F)c3)c(C(F)(F)F)nc2n1` [Example 2-4, 8-methoxy-2-(trifluoromethyl)-3-(1-(3,3,3-trifluoropropyl)-1H-pyrazol-4-yl)-4H-pyrimido[1,2-a]pyrimidin-4-one] belongs 57.4 nM; to `COc1cnn2c(=O)c(-c3cnc(OCC(F)(F)F)nc3)c(C(F)(F)F)nc2c1` [Example 38, 8-Methoxy-3-[2-(2,2,2-trifluoroethoxy)pyrimidin-5-yl]-2-(trifluoromethyl)-4H-pyrimido[1,2-b]pyridazin-4-one], 99.2 nM; to `COc1ccn2c(=O)c(-c3cn(CC(F)(F)C(F)(F)F)nn3)c(C(F)(F)F)nc2c1` [Example 53, 8-Methoxy-3-[1-(2,2,3,3,3-pentafluoropropyl)-1H-1,2,3-triazol-4-yl]-2-(trifluoromethyl)-4H-pyrido[1,2-a]pyrimidin-4-one], 44.7 nM.
As for `CC(=O)Nc1ccn2c(=O)c(-c3ccc(OCC(F)(F)F)cc3)c(C(F)(F)F)nc2c1` [Example 1-31, N-(4-oxo-3-(4-(2,2,2-trifluoroethoxy)phenyl)-2-(trifluoromethyl)-4H-pyrido[1,2-a]pyrimidin-8-yl)acetamide], the IC50 came out at 1720 nM.
